From ChEMBL document CHEMBL4229455, “Synthesis and anticancer activity of novel bisindolylhydroxymaleimide derivatives with potent GSK-3 kinase inhibition” (Bioorg Med Chem, 2018)

Assays:
786-0 = assay: Cytotoxicity against human 786-O cells assessed as cell growth at 10 uM after 48 hrs by SRB assay relative to control; type: functional; conditions: 786-0, 48 h, read-out: Activity
NCI-H460 = assay: Cytotoxicity against human NCI-H460 cells assessed as cell growth at 10 uM after 48 hrs by SRB assay relative to control; type: functional; conditions: NCI-H460, 48 h, read-out: Activity
[1] = target: Dual specificity tyrosine-phosphorylation-regulated kinase 1A (Rattus norvegicus) (UniProt Q63470); assay: Inhibition of recombinant rat DYRK1A kinase domain expressed in bacteria assessed as residual activity at 10 uM using KKISGRLSPIMTEQ as substrate in presence of [gamma-33P]ATP
PC-3 = assay: Cytotoxicity against human PC3 cells assessed as cell growth at 10 uM after 48 hrs by SRB assay relative to control; type: functional; conditions: PC-3, 48 h, read-out: Activity
T47D = assay: Cytotoxicity against human T47D cells assessed as cell growth at 10 uM after 48 hrs by SRB assay relative to control; type: functional; conditions: read-out: Activity
OVCAR-3 = assay: Cytotoxicity against human OVCAR3 cells assessed as cell growth at 10 uM after 48 hrs by SRB assay relative to control; type: functional; conditions: OVCAR-3, 48 h, read-out: Activity
SK-MEL-2 = assay: Cytotoxicity against human SK-MEL-2 cells assessed as cell growth at 10 uM after 48 hrs by SRB assay relative to control; type: functional; conditions: SK-MEL-2, 48 h, read-out: Activity
SK-MEL-5 = assay: Cytotoxicity against human SK-MEL-5 cells assessed as cell growth at 10 uM after 48 hrs by SRB assay relative to control; type: functional; conditions: SK-MEL-5, 48 h, read-out: Activity
SNB-19 = assay: Cytotoxicity against human SNB19 cells assessed as cell growth at 10 uM after 48 hrs by SRB assay relative to control; type: functional; conditions: SNB-19, 48 h, read-out: Activity
[2] = target: Cyclin-dependent kinase 5/CDK5 activator 1 (Homo sapiens) (UniProt Q00535+Q15078); assay: Inhibition of recombinant full length human CDK5/p25 expressed in bacteria assessed as residual activity at 10 uM using histone H1 as substrate in presence of [gamma-33P]ATP
Cyclin-dependent kinase 5/CDK5 activator 1 (Homo sapiens), sequence (Q00535 whole entry): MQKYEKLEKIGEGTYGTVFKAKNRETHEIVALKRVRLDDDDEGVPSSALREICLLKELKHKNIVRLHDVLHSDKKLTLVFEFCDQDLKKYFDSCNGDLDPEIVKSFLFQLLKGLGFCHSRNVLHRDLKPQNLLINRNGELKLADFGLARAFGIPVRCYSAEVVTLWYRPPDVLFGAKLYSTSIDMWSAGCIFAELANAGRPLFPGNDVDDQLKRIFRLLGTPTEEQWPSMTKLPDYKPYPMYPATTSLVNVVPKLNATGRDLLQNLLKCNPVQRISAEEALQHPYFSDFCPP
Cyclin-dependent kinase 5/CDK5 activator 1 (Homo sapiens), sequence (Q15078 99-307 partner limits assumed): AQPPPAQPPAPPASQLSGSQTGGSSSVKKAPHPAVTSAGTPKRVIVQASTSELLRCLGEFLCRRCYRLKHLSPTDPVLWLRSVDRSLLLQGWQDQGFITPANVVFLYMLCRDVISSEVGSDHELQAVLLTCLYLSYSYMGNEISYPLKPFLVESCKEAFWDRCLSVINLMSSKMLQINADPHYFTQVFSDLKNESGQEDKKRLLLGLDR

[3] = target: CDK2/Cyclin A2 (Homo sapiens) (UniProt P24941+P20248); assay: Inhibition of full length human CDK2/cyclin A assessed as residual activity at 10 uM using histone H1 as substrate in presence of [gamma-33P]ATP; type: protein-complex assay
CCRF-CEM = assay: Cytotoxicity against human CCRF-CEM cells assessed as cell growth at 10 uM after 48 hrs by SRB assay relative to control; type: functional; conditions: read-out: Activity
U-251 = assay: Cytotoxicity against human U251 cells assessed as cell growth at 10 uM after 48 hrs by SRB assay relative to control; type: functional; conditions: U-251, 48 h, read-out: Activity
COLO 205 = assay: Cytotoxicity against human COLO205 cells assessed as cell growth at 10 uM after 48 hrs by SRB assay relative to control; type: functional; conditions: COLO 205, 48 h, read-out: Activity
NCI-H226 = assay: Cytotoxicity against human NCI-H226 cells assessed as cell growth at 10 uM after 48 hrs by SRB assay relative to control; type: functional; conditions: NCI-H226, 48 h, read-out: Activity
[4] = target: T1, Serine/threonine-protein kinase haspin (Homo sapiens) (UniProt Q8TF76); assay: Inhibition of recombinant human haspin kinase domain expressed in bacteria assessed as residual activity at 10 uM using histone H3 (1 to 21 residues) peptide as substrate in presence of [gamma-33P]ATP
T1 sequence (whole entry): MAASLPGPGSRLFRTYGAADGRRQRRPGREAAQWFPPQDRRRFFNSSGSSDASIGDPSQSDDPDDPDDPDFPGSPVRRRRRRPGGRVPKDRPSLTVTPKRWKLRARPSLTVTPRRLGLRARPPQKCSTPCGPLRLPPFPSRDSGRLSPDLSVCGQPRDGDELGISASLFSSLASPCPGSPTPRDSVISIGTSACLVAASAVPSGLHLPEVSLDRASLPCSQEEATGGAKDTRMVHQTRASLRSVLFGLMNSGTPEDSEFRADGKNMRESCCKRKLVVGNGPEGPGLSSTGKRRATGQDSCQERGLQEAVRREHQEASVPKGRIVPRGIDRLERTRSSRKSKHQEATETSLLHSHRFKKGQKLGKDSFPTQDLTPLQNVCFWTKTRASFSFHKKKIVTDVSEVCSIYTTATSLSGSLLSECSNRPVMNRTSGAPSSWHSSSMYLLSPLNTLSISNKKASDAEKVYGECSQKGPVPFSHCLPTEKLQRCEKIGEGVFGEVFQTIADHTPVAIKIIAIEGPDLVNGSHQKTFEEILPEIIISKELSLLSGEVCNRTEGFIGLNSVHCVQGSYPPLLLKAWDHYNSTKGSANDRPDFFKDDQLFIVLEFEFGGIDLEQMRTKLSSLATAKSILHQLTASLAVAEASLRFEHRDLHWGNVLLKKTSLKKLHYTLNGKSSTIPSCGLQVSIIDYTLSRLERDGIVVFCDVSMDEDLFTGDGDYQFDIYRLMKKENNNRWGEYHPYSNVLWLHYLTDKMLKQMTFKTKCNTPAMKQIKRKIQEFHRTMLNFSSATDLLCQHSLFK

BT-549 = assay: Cytotoxicity against human BT549 cells assessed as cell growth at 10 uM after 48 hrs by SRB assay relative to control; type: functional; conditions: BT-549, 48 h, read-out: Activity
ACHN = assay: Cytotoxicity against human ACHN cells assessed as cell growth at 10 uM after 48 hrs by SRB assay relative to control; type: functional; conditions: read-out: Activity
SN12C = assay: Cytotoxicity against human SN12C cells assessed as cell growth at 10 uM after 48 hrs by SRB assay relative to control; type: functional; conditions: read-out: Activity
RXF 393 = assay: Cytotoxicity against human RXF393 cells assessed as cell growth at 10 uM after 48 hrs by SRB assay relative to control; type: functional; conditions: RXF 393, 48 h, read-out: Activity
OVCAR-5 = assay: Cytotoxicity against human OVCAR5 cells assessed as cell growth at 10 uM after 48 hrs by SRB assay relative to control; type: functional; conditions: OVCAR-5, 48 h, read-out: Activity
MDA-MB-468 = assay: Cytotoxicity against human MDA-MB-468 cells assessed as cell growth at 10 uM after 48 hrs by SRB assay relative to control; type: functional; conditions: MDA-MB-468, 48 h, read-out: Activity
CDK2/Cyclin A2 = CDK2/Cyclin A2 (Homo sapiens, UniProt P24941); assay: Inhibition of full length human CDK2/cyclin A using histone H1 as substrate in presence of [gamma-33P]ATP; type: protein-complex assay
Aurora kinase B = Aurora kinase B (Homo sapiens, UniProt Q96GD4); assay: Inhibition of recombinant full length human aurora B expressed in baculovirus infected Sf9 insect cells assessed as residual activity at 10 uM using MBP as substrate in presence of [gamma-33P]ATP
Aurora kinase B, sequence (Q96GD4 whole entry): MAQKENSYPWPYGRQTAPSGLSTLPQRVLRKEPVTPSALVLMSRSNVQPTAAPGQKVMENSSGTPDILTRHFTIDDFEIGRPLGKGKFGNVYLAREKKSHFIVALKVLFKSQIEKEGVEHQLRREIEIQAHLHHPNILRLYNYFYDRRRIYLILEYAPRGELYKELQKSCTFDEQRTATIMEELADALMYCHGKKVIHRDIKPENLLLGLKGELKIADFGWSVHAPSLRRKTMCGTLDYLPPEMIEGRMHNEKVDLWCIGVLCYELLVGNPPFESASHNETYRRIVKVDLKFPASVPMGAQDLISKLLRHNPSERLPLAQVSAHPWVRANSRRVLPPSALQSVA

SMILES | growth at 10 µM (786-0) [%] | growth at 10 µM (NCI-H460) [%] | Activity [1] [%] | growth at 10 µM (PC-3) [%] | growth at 10 µM (T47D) [%] | growth at 10 µM (OVCAR-3) [%] | growth at 10 µM (SK-MEL-2) [%] | growth at 10 µM (SK-MEL-5) [%] | growth at 10 µM (SNB-19) [%] | Activity [2] [%] | Activity [3] [%] | growth at 10 µM (CCRF-CEM) [%] | growth at 10 µM (U-251) [%] | growth at 10 µM (COLO 205) [%] | growth at 10 µM (NCI-H226) [%] | Activity [4] [%] | growth at 10 µM (BT-549) [%] | growth at 10 µM (ACHN) [%] | growth at 10 µM (SN12C) [%] | growth at 10 µM (RXF 393) [%] | further results
Cn1cc(C2=C(c3cn(CCCCCC#N)c4ccccc34)C(=O)N(O)C2=O)c2ccccc21 | 83.7 | 99.3 | 24 | 80.5 | 78.5 | 93.6 | 94.1 | 78.8 | 104 | 49 | 64 | 83.3 | 102 | 92.6 | 77.8 | 114 | 81.4 | 97.4 | 102 | 90 | growth at 10 µM (OVCAR-5): 117%; growth at 10 µM (MDA-MB-468): 87.5%; IC50 (CDK2/Cyclin A2): > 10 µM; Activity (Aurora kinase B): 71%
O=C(O)CCCCCn1cc(C2=C(c3c[nH]c4ccccc34)C(=O)N(O)C2=O)c2ccccc21 | 93 | 103 | 24 | 84.9 | 96.2 | 99.3 | 99.4 | 93.9 | 107 | 60 | 66 | 96.2 | 102 | 102 | 92.5 | 113 | 99.9 | 97.5 | 105 | 101 | growth at 10 µM (OVCAR-5): 106%; growth at 10 µM (MDA-MB-468): 104%; IC50 (CDK2/Cyclin A2): > 10 µM; Activity (Aurora kinase B): 63%
N#CCCCCCn1cc(C2=C(c3cn(CCCCCC#N)c4ccccc34)C(=O)N(O)C2=O)c2ccccc21 | 51 to 78.7 | 28 to 72.7 | 38 | 29 to 70.3 | 26 to 65.5 | 13 to 50.6 | 8 to 68.7 | 2 to 39.4 | 27 to 79.5 | 75 | 78 | 8 to 54.2 | 25 to 82.2 | 74 to 91.7 | 44 to 70 | 99 | 16 to 56 | 45 to 81.7 | 47 to 88.2 | 2 to 73.2 | growth at 10 µM (OVCAR-5): 95 to 106%; growth at 10 µM (MDA-MB-468): 3 to 58%; IC50 (CDK2/Cyclin A2): > 10 µM; Activity (Aurora kinase B): 75%
